Measurements published in the NIST ThermoML archive (doi:10.1021/je200813q).

Assay: mn = molality of the nth substance listed, in mol/kg
Settings: 101.3 kPa, Liquid, Buoyancy - hydrostatic balance with magnetic suspension - one sinker

O=S(=O)([O-])[O-].[O]=[V+2] [oxovanadium(IV) sulfate] + O
mass density [kg/m3]
Settings	283.15 K	293.15 K	298.15 K	303.15 K	313.15 K	323.15 K
m1 = 0.5	1074.6	1072.5	1070.7	1068	1065	1060.4
m1 = 0.8	1117.6	1114.8	1113	1110.7	1106.6	1101.7
m1 = 1	1144.9	1141.9	1139.8	1137.6	1133.3	1128.4
m1 = 1.2	1171.8	1169.5	1167.2	1164.6	1159.9	1154.7
m1 = 1.5	1211.3	1207.8	1205.3	1202.7	1198.3	1192.4
m1 = 1.8	1249.6	1245.6	1242.9	1240.4	1235.3	1229.9
m1 = 2	1274.1	1270	1267.4	1264.7	1259.6	1253.9
m1 = 2.2	1298.2	1293.9	1291.2	1288.8	1283.4	1277.6
m1 = 2.5	1333.7	1329.3	1326.5	1323.9	1318.5	1312.7
m1 = 2.8	1367.1	1362.8	1359.8	1357.2	1351.6	1345.6
m1 = 3	1389.5	1384.6	1381.3	1378.8	1373.4	1367.5
